Experimental data reported in patent publication US20200223837A1, “BENZOFURAN AMIDES AND HETEROAROMATIC ANALOGUES THEREOF FOR USE IN THERAPY” (European Molecular Biology Laboratory, priority 2017, published 2020).

Tested on: EGR1 promoter
Assay: EGR1 reporter assay (luciferase) in genomically engineered HeLa cell line
Type: cell-based
Conditions: Homo sapiens; EGR1 reporter HeLa cells, luciferase activity after 24 hours with compound
From the text: The compounds of the present invention can be characterized for their effect on expression of egr1 (early growth response protein 1) using an EGR1 reporter cell line.
The HeLa cell line was genetically modified to provide a simple, robust and highly reproducible cell-based assay reporting the activity of an endogenous EGR1 promoter. In brief, a construct encoding EGFP and luciferase proteins, separated by a self-cleaving P2A peptide was inserted, using CRISPR, immediately downstream (3′) to the promoter of endogenous EGR1. Upon treatment with compounds, cells express EGFP and luciferase from EGR1 promoter, which can be readily detected either in live cells using microscopy or cytometry, or through detection of luciferase activity in cell lysates.
To achieve stable genomic integration of an EGR1-promoter dual reporter, two plasmids were generated: one contained the reporter construct (eGFP-P2A-luciferase) flanked by homology arms that direct insertion into genomic DNA, by homologous recombination, of a break in genomic DNA generated by guide RNA targeted cleavage by Cas9 endonuclease. The gRNA expressing plasmid was based on px330 (56), into which a gRNA sequence that targets a break in gDNA close to the start codon of EGR1 was cloned. The left homology arm (encoding part of EGR1 promoter adjacent to its start codon) and right homology arm (encoding […] of start codon of EGR1) were cloned from gDNA using the following primers: […]
The present compounds can be tested, e.g. by using a HeLa cell line carrying an EGR1 reporter construct which allows for expression of luciferase and eGFP (enhanced GFP) controlled by the EGR1 promoter. For this reporter cells are seeded in the wells of a 384 well microtiter plate at a density of 2000 cells per well in 48 μl of DMEM supplemented with 4.5 g/l glucose, 2 mM glutamine and 10% FCS and are incubated for 24 hours at 37° C. with 5% CO2 and 95% humidity. Then, an eleven point 1:3 serial dilution of each test compound, from an initial concentration of 100 μM, is prepared in DMSO and the dilutions are added to the cells in a volume of 2 μl per well. The cells are incubated for a further 24 hours, after which the luciferase activity of each well is determined by addition of 25 μl of luciferase substrate reaction mixture (Britelite™ plus, Perkin Elmer) and measuring the bioluminescence light output (EnVision Xcite plate reader, PerkinElmer).
The compound of example 64 served as a positive control for this EGR1 reporter assay. The compound of example 64 had been identified in an initial high throughput screening campaign.

Q: With CC(=O)NCc1ccc(-c2csc(NC(=O)Cc3coc4cc(C)c(C(C)C)cc34)n2)o1 [Example 1, N-[4-[5-(Acetamidomethyl)-2-furyl]thiazol-2-yl]-2-(5-isopropyl-6-methyl-benzofuran-3-yl)acetamide] as the compound, how does the EC50 read?
A: The EC50 was 10 to 100 µM.

Q: Which EC50 does the source give for COc1ccc2c(CC(=O)Nc3nccs3)coc2c1 [Example 2, 2-(6-Methoxybenzofuran-3-yl)-N-thiazol-2-yl-acetamide] here?
A: Its EC50 is 10 to 100 µM.

Q: Which EC50 does the source give for Cn1ccc(NC(=O)Cc2coc3cc4c(cc23)CCC4)n1 [Example 3, 2-(6,7-Dihydro-5H-cyclopenta[f]benzofuran-3-yl)-N-(1-methylpyrazol-3-yl)acetamide] here?
A: The EC50 was 10 to 100 µM.

Q: Cc1ccc2occ(CC(=O)Nc3ncc(C(F)(F)F)s3)c2c1 [Example 4, 2-(5-Methylbenzofuran-3-yl)-N-[5-(trifluoromethyl)thiazol-2-yl]acetamide] was tested. Which EC50 did it give?
A: Its EC50 is 10 to 100 µM.

Q: CCc1ccc2c(CC(=O)Nc3nc(-c4ccccn4)cs3)coc2c1 [Example 5, 2-(6-Ethylbenzofuran-3-yl)-N-[4-(2-pyridyl)thiazol-2-yl]acetamide] was tested. Which EC50 did it give?
A: Its EC50 is 10 to 100 µM.

Q: For O=C(Cc1coc2ccccc12)Nc1ncc(C(F)(F)F)s1 [Example 6, 2-(Benzofuran-3-yl)-N-[5-(trifluoromethyl)thiazol-2-yl]acetamide], which EC50 is on record?
A: Its EC50 is 10 to 100 µM.

Q: For COc1ccc2c(CC(=O)Nc3nc(CC(N)=O)cs3)coc2c1 [Example 7, N-[4-(2-Amino-2-oxo-ethyl)thiazol-2-yl]-2-(6-methoxybenzofuran-3-yl)acetamide], which EC50 is on record?
A: Its EC50 is 10 to 100 µM.

Q: COc1ccc2c(CC(=O)Nc3nc(-c4ccc(CNC(C)=O)o4)cs3)coc2c1 [Example 8, N-[4-[5-(Acetamidomethyl)-2-furyl]thiazol-2-yl]-2-(6-methoxybenzofuran-3-yl)acetamide] was tested. Which EC50 did it give?
A: Its EC50 is 10 to 100 µM.

Q: For Cc1cc2occ(CC(=O)Nc3nc(-c4ccccn4)cs3)c2cc1C [Example 9, 2-(5,6-Dimethylbenzofuran-3-yl)-N-[4-(2-pyridyl)thiazol-2-yl]acetamide], which EC50 is on record?
A: The EC50 was 10 to 100 µM.

Q: With Cc1cnc(NC(=O)Cc2coc3c(C)cccc23)s1 [Example 10, 2-(7-Methylbenzofuran-3-yl)-N-(5-methylthiazol-2-yl)acetamide] as the compound, how does the EC50 read?
A: The EC50 was 10 to 100 µM.

Q: COc1ccc(OC)c(-c2csc(NC(=O)Cc3coc4cc(C)ccc34)n2)c1 [Example 11, N-[4-(2,5-Dimethoxyphenyl)thiazol-2-yl]-2-(6-methylbenzofuran-3-yl)acetamide] was tested. Which EC50 did it give?
A: The EC50 was 10 to 100 µM.

Q: With COc1ccc2c(CC(=O)Nc3nc(C)cs3)coc2c1 [Example 12, 2-(6-Methoxybenzofuran-3-yl)-N-(4-methylthiazol-2-yl)acetamide] as the compound, how does the EC50 read?
A: The EC50 was 10 to 100 µM.

Q: With CCOC(=O)c1csc(NC(=O)Cc2coc3cc(C)ccc23)n1 [Example 13, Ethyl 2-[[2-(6-methylbenzofuran-3-yl)acetyl]amino]thiazole-4-carboxylate] as the compound, how does the EC50 read?
A: The EC50 was 10 to 100 µM.

Q: How did the EC50 turn out when COc1ccc(OC)c(-c2csc(NC(=O)Cc3coc4cc(OC)ccc34)n2)c1 [Example 14, N-[4-(2,5-Dimethoxyphenyl)thiazol-2-yl]-2-(6-methoxybenzofuran-3-yl)acetamide] was run?
A: The EC50 was 10 to 100 µM.

Q: Cc1cnc(NC(=O)Cc2coc3cc(Cl)ccc23)s1 [Example 15, 2-(6-Chlorobenzofuran-3-yl)-N-(5-methylthiazol-2-yl)acetamide] was tested. Which EC50 did it give?
A: Its EC50 is 10 to 100 µM.

Q: Which EC50 does the source give for Cc1cc2occ(CC(=O)N(c3ccc(F)cc3)c3nc4ccccc4s3)c2cc1C(C)C [Example 16, N-(1,3-Benzothiazol-2-yl)-N-(4-fluorophenyl)-2-(5-isopropyl-6-methyl-benzofuran-3-yl)acetamide] here?
A: Its EC50 is 10 to 100 µM.

Q: Which EC50 does the source give for Cc1cnc(NC(=O)Cc2coc3cc4c(cc23)CCC4)o1 [Example 17, 2-(6,7-Dihydro-5H-cyclopenta[f]benzofuran-3-yl)-N-(5-methyloxazol-2-yl)acetamide] here?
A: Its EC50 is 10 to 100 µM.

Q: Which EC50 does the source give for NC(=O)c1cnc(NC(=O)Cc2coc3cc4c(cc23)CCC4)s1 [Example 18, 2-[[2-(6,7-Dihydro-5H-cyclopenta[f]benzofuran-3-yl)acetyl]amino]thiazole-5-carboxamide] here?
A: The EC50 was 10 to 100 µM.

Q: Which EC50 does the source give for CC(=O)NCc1ccc(-c2csc(NC(=O)Cc3coc4cc5c(cc34)CCC5)n2)o1 [Example 19, N-[4-[5-(Acetamidomethyl)-2-furyl]thiazol-2-yl]-2-(6,7-dihydro-5H-cyclopenta[f]benzofuran-3-yl)acetamide] here?
A: Its EC50 is 10 to 100 µM.

Q: How did the EC50 turn out when CCc1ccc2c(CC(=O)Nc3nccs3)coc2c1 [Example 20, 2-(6-Ethylbenzofuran-3-yl)-N-thiazol-2-yl-acetamide] was run?
A: Its EC50 is 10 to 100 µM.

Q: Cc1ccc2c(CC(=O)Nc3nc(-c4ccccn4)cs3)coc2c1 [Example 21, 2-(6-Methylbenzofuran-3-yl)-N-[4-(2-pyridyl)thiazol-2-yl]acetamide] was tested. Which EC50 did it give?
A: The EC50 was 10 to 100 µM.

Q: Cc1cnc(NC(=O)Cc2coc3c(C)c(C)ccc23)[nH]1 [Example 22, 2-(6,7-Dimethylbenzofuran-3-yl)-N-(5-methyl-1H-imidazol-2-yl)acetamide] was tested. Which EC50 did it give?
A: The EC50 was 10 to 100 µM.

Q: How did the EC50 turn out when Cc1c[nH]c(NC(=O)Cc2coc3cc4c(cc23)CCC4)n1 [Example 23, 2-(6,7-dihydro-5H-cyclopenta[f]benzofuran-3-yl)-N-(5-methyl-1H-imidazol-2-yl)acetamide] was run?
A: Its EC50 is 0.01 to 10 µM.

Q: CC(=O)c1csc(NC(=O)Cc2coc3cc(C)ccc23)n1 [Example 24, N-(4-Acetylthiazol-2-yl)-2-(6-methylbenzofuran-3-yl)acetamide] was tested. Which EC50 did it give?
A: The EC50 was 0.01 to 10 µM.

Q: COc1ccc2c(CC(=O)Nc3nc(-c4ccncc4)cs3)coc2c1 [Example 25, 2-(6-Methoxybenzofuran-3-yl)-N-[4-(4-pyridyl)thiazol-2-yl]acetamide] was tested. Which EC50 did it give?
A: The EC50 was 0.01 to 10 µM.

Q: Which EC50 does the source give for COc1ccc2c(CC(=O)Nc3nc(-c4ccccn4)cs3)coc2c1 [Example 26, 2-(6-Methoxybenzofuran-3-yl)-N-[4-(2-pyridyl)thiazol-2-yl]acetamide] here?
A: Its EC50 is 0.01 to 10 µM.

Q: For Cc1ccc2c(CC(=O)Nc3nc(-c4cccs4)cs3)coc2c1 [Example 27, 2-(6-Methylbenzofuran-3-yl)-N-[4-(2-thienyl)thiazol-2-yl]acetamide], which EC50 is on record?
A: Its EC50 is 0.01 to 10 µM.

Q: Which EC50 does the source give for CC(=O)NCCc1ccc(-c2csc(NC(=O)Cc3coc4cc(C)ccc34)n2)s1 [Example 28, N-[4-[5-(2-Acetamidoethyl)-2-thienyl]thiazol-2-yl]-2-(6-methylbenzofuran-3-yl)acetamide] here?
A: The EC50 was 0.01 to 10 µM.

Q: With COc1ccc2c(CC(=O)Nc3nc(-c4ccc5c(c4)CCC(=O)N5)cs3)coc2c1 [Example 29, 2-(6-Methoxybenzofuran-3-yl)-N-[4-(2-oxo-3,4-dihydro-1H-quinolin-6-yl)thiazol-2-yl]acetamide] as the compound, how does the EC50 read?
A: The EC50 was 0.01 to 10 µM.

Q: Which EC50 does the source give for CCc1ccc2c(CC(=O)Nc3nc(-c4ccc(CNC(C)=O)cc4)cs3)coc2c1 [Example 30, N-[4-[4-(Acetamidomethyl)phenyl]thiazol-2-yl]-2-(6-ethylbenzofuran-3-yl)acetamide] here?
A: The EC50 was 0.01 to 10 µM.

Q: Cc1ccc2c(CC(=O)Nc3nc(-c4ccncc4)cs3)coc2c1 [Example 31, 2-(6-Methylbenzofuran-3-yl)-N-[4-(4-pyridyl)thiazol-2-yl]acetamide] was tested. Which EC50 did it give?
A: Its EC50 is 0.01 to 10 µM.

Q: With COc1ccc2nc(NC(=O)Cc3coc4cc5c(cc34)CCC5)sc2c1 [Example 32, 2-(6,7-Dihydro-5H-cyclopenta[f]benzofuran-3-yl)-N-(6-methoxy-1,3-benzothiazol-2-yl)acetamide] as the compound, how does the EC50 read?
A: The EC50 was 0.01 to 10 µM.

Q: For Cc1ccc2c(CC(=O)Nc3nc(C)cs3)coc2c1 [Example 33, 2-(6-Methylbenzofuran-3-yl)-N-(4-methylthiazol-2-yl)acetamide], which EC50 is on record?
A: The EC50 was 0.01 to 10 µM.

Q: For Cc1cnc(NC(=O)Cc2coc3cc4c(cc23)OCO4)s1 [Example 34, 2-Furo[3,2-f][1,3]benzodioxol-7-yl-N-(5-methylthiazol-2-yl)acetamide], which EC50 is on record?
A: The EC50 was 0.01 to 10 µM.

Q: How did the EC50 turn out when CCc1ccc2c(CC(=O)Nc3nc(C)cs3)coc2c1 [Example 35, 2-(6-Ethylbenzofuran-3-yl)-N-(4-methylthiazol-2-yl)acetamide] was run?
A: Its EC50 is 0.01 to 10 µM.

Q: Which EC50 does the source give for Cc1ccc2c(CC(=O)Nc3nc(-c4ccc(C)o4)cs3)coc2c1 [Example 36, 2-(6-Methylbenzofuran-3-yl)-N-[4-(5-methyl-2-furyl)thiazol-2-yl]acetamide] here?
A: The EC50 was 0.01 to 10 µM.

Q: With COc1ccc2c(CC(=O)Nc3nc(-c4cccs4)cs3)coc2c1 [Example 37, 2-(6-Methoxybenzofuran-3-yl)-N-[4-(2-thienyl)thiazol-2-yl]acetamide] as the compound, how does the EC50 read?
A: The EC50 was 0.01 to 10 µM.

Q: O=C(Cc1coc2cc(Cl)ccc12)Nc1ncc(C(F)(F)F)[nH]1 [Example 38, 2-(6-Chlorobenzofuran-3-yl)-N-[5-(trifluoromethyl)-1H-imidazol-2-yl]acetamide] was tested. Which EC50 did it give?
A: Its EC50 is 0.01 to 10 µM.

Q: With O=C(Cc1coc2c(F)c(F)ccc12)Nc1ncc(C(F)(F)F)s1 [Example 39, 2-(6,7-Difluorobenzofuran-3-yl)-N-[5-(trifluoromethyl)thiazol-2-yl]acetamide] as the compound, how does the EC50 read?
A: Its EC50 is 0.01 to 10 µM.
